This note sets out measurements from ChEMBL document CHEMBL4184147, “Polyphenolic Phytochemicals in Cancer Prevention and Therapy: Bioavailability versus Bioefficacy” (J Med Chem, 2017).

For test [1], the system named is Lipid bilayer. Nature of the test: Induction of DOPC/n-decane bilayer property changes assessed as concentration required to double gramicidin-induced quencher influx rate by […].
Test [2] is described as follows: Displacement of [3H]resveratrol from Sprague-Dawley rat brain plasma membranes after 1 hr by beta counting method. The class given is cell membranes. A general note: In a radioligand displacement assay an active substance lowers the binding of a labelled ligand.

Take `COc1cc(CNC(=O)CCCC/C=C/C(C)C)ccc1O`: the Activity in test [1] stood at 18 µM.
As for `O=C(O[C@@H]1Cc2c(O)cc(O)cc2O[C@@H]1c1ccc(O)c(O)c1)c1cc(O)c(O)c(O)c1` [EPICATECHIN GALLATE], the inhibition constant Ki in test [2] is 25 to 45 nM.

For orientation: Ki means the equilibrium dissociation constant of an inhibitor or competing ligand from its target. Read a high Ki as weaker binding.
